Laboratory results published in patent US20220389061A1, “IMMUNOMODULATORS” (priority 2019, published 2022).
Where two headings read alike, the source gives them in different places. Starred links: 1 amine or outer side, 2 acyl side, 3 side chain; linkers in the order of their positions; H or OH if unused. Positions of bridges follow the written chain, without caps; N, C: chain ends. Non-standard residues stand in square brackets, D forms with d. Residues, ends and D or L forms follow the SMILES beside them. Groups on a side chain read outwards from the residue. *: point of attachment. Trp(1-CH2CO2Me) = COC(=O)Cn1cc(C[C@H](N)C(=O)O)c2ccccc21; Trp(1-CH2COOH) = N[C@@H](Cc1cn(CC(=O)O)c2ccccc12)C(=O)O; X41 = N=C(NCC[C@H](N[*:1])C(=O)[*:2])c1ccccc1; X40 = N=C(NC[C@H](N[*:1])C(=O)[*:2])c1ccccc1; X24 = COc1cc(NC(=S)*)ccc1-n1cnc(C)n1; X38 = N#Cc1c[nH]c2c(NC(=S)*)cccc12; Hyp = O=C(O)[C@@H]1C[C@@H](O)CN1; X32 = c1ccc2c(c1)Cc1cc(N*)ccc1-2; X35 = Cc1n[nH]c2c(NC(=S)*)cccc12; X3 = S=C(Nc1ccc(Oc2ccccc2)cc1)*; X94 = S=C(Nc1ccc(N2CCOCC2)nc1)*; X30 = FC(F)(F)c1ccc(N*)c(Cl)c1; NMeNle = CCCC[C@H](NC)C(=O)O; X64 = COc1cc(OC)c(N*)cc1Cl; NMeA = CN[C@@H](C)C(=O)O; Dab = NCC[C@H](N)C(=O)O; X39 = CCCCOc1ccc(N*)cc1; Dap = NC[C@H](N)C(=O)O; X77 = Clc1cccc(N*)c1Cl; CO = O=C([*:1])[*:2]; Bz = O=C(c1ccccc1)*

Biological target: T1, PD-1/PD-L1 (Homo sapiens, UniProt Q9NZQ7)
T1 construct: TVMV protease site linker (C); made in house; host or cells: HEK293T cells
Experiment: PD-1/PD-L1 Homogenous Time-Resolved Fluorescence (HTRF) binding assay
In short: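 Compounds preincubated 15 min with PD-L1-His (10 nM final), then PD-1-Ig (20 nM final) added for 15 min in dPBS with 0.1% BSA, 0.05% Tween-20. Detection by Eu-cryptate anti-Ig (1 nM) and APC anti-His (20 nM) HTRF.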

[1] = PD-L1-His 10 nM pre-incubated with inhibitor, PD-1-Ig 20 nM, read-out: HTRF IC50

T1 sequence (Q9NZQ7 18-239): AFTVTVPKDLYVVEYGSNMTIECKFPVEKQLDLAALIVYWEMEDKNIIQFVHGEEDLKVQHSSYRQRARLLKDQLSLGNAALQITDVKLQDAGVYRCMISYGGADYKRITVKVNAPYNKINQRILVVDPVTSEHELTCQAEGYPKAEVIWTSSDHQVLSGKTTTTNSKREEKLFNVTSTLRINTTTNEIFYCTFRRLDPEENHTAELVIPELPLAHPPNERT

| Compound | IC50 [1] [nM] | IC50 [nM] |
| --- | --- | --- |
| CCCC[C@H]1C(=O)N(C)[C@@H](CCCC)C(=O)N[C@@H](CC(C)C)C(=O)N[C@H](C(=O)NCC(N)=O)CSCC(=O)N[C@@H](Cc2ccc(O)cc2)C(=O)N(C)[C@@H](C)C(=O)N[C@@H](CC(N)=O)C(=O)N2CCC[C@H]2C(=O)N[C@@H](CNC(=O)Nc2ccc3c(c2)Cc2ccccc2-3)C(=O)N[C@@H](CC(C)C)C(=O)N2C[C@H](O)C[C@H]2C(=O)N[C@@H](Cc2c[nH]c3ccccc23)C(=O)N[C@@H](CCN)C(=O)N[C@@H](Cc2cn(CC(=O)O)c3ccccc23)C(=O)N1C [Example 2009] ({CH2CO}-Y[NMeA]NP[Dap]([CO-X32])L[Hyp]W[Dab][Trp(1-CH2COOH)][NMeNle][NMeNle]LCG-NH2; thioether N-14) |  | 3.6 |
| CCCC[C@H]1C(=O)N(C)[C@@H](CCCC)C(=O)N[C@@H](CC(C)C)C(=O)N[C@H](C(=O)NCC(N)=O)CSCC(=O)N[C@@H](Cc2ccc(O)cc2)C(=O)N(C)[C@@H](C)C(=O)N[C@@H](CC(N)=O)C(=O)N2CCC[C@H]2C(=O)N[C@@H](CNC(=S)Nc2ccc(Oc3ccccc3)cc2)C(=O)N[C@@H](CC(C)C)C(=O)N2C[C@H](O)C[C@H]2C(=O)N[C@@H](Cc2c[nH]c3ccccc23)C(=O)N[C@@H](CCNC(=S)Nc2ccc(Oc3ccccc3)cc2)C(=O)N[C@@H](Cc2cn(CC(=O)O)c3ccccc23)C(=O)N1C [Example 1080] ({CH2CO}-Y[NMeA]NP[Dap](X3)L[Hyp]W[Dab](X3)[Trp(1-CH2COOH)][NMeNle][NMeNle]LCG-NH2; thioether N-14) | 3.4 |  |
| CCCC[C@H]1C(=O)N(C)[C@@H](CCCC)C(=O)N[C@@H](CC(C)C)C(=O)N[C@H](C(=O)NCC(N)=O)CSCC(=O)N[C@@H](Cc2ccc(O)cc2)C(=O)N(C)[C@@H](C)C(=O)N[C@@H](CC(N)=O)C(=O)N2CCC[C@H]2C(=O)N[C@@H](CNC(=O)c2ccccc2)C(=O)N[C@@H](CC(C)C)C(=O)N2C[C@H](O)C[C@H]2C(=O)N[C@@H](Cc2c[nH]c3ccccc23)C(=O)N[C@@H](CCNC(=O)c2ccccc2)C(=O)N[C@@H](Cc2cn(CC(=O)OC)c3ccccc23)C(=O)N1C [Example 1006] ({CH2CO}-Y[NMeA]NP[Dap](Bz)L[Hyp]W[Dab](Bz)[Trp(1-CH2CO2Me)][NMeNle][NMeNle]LCG-NH2; thioether N-14) |  | 0.2 |
| CCCC[C@H]1C(=O)N(C)[C@@H](CCCC)C(=O)N[C@@H](CC(C)C)C(=O)N[C@H](C(=O)NCC(N)=O)CSCC(=O)N[C@@H](Cc2ccc(O)cc2)C(=O)N(C)[C@@H](C)C(=O)N[C@@H](CC(N)=O)C(=O)N2CCC[C@H]2C(=O)N[C@@H](CNC(=O)Nc2cc(Cl)c(OC)cc2OC)C(=O)N[C@@H](CC(C)C)C(=O)N2C[C@H](O)C[C@H]2C(=O)N[C@@H](Cc2c[nH]c3ccccc23)C(=O)N[C@@H](CCN)C(=O)N[C@@H](Cc2cn(CC(=O)O)c3ccccc23)C(=O)N1C [Example 1067] ({CH2CO}-Y[NMeA]NP[Dap]([CO-X64])L[Hyp]W[Dab][Trp(1-CH2COOH)][NMeNle][NMeNle]LCG-NH2; thioether N-14) | 2.7 |  |
| CCCC[C@H]1C(=O)N(C)[C@@H](CCCC)C(=O)N[C@@H](CC(C)C)C(=O)N[C@H](C(=O)NCC(N)=O)CSCC(=O)N[C@@H](Cc2ccc(O)cc2)C(=O)N(C)[C@@H](C)C(=O)N[C@@H](CC(N)=O)C(=O)N2CCC[C@H]2C(=O)N[C@@H](CNC(=N)c2ccccc2)C(=O)N[C@@H](CC(C)C)C(=O)N2C[C@H](O)C[C@H]2C(=O)N[C@@H](Cc2c[nH]c3ccccc23)C(=O)N[C@@H](CCNC(=N)c2ccccc2)C(=O)N[C@@H](Cc2cn(CC(=O)O)c3ccccc23)C(=O)N1C [Example 1019] ({CH2CO}-Y[NMeA]NP[X40]L[Hyp]W[X41][Trp(1-CH2COOH)][NMeNle][NMeNle]LCG-NH2; thioether N-14) | 3.4 |  |
| CCCC[C@H]1C(=O)N(C)[C@@H](CCCC)C(=O)N[C@@H](CC(C)C)C(=O)N[C@H](C(=O)NCC(N)=O)CSCC(=O)N[C@@H](Cc2ccc(O)cc2)C(=O)N(C)[C@@H](C)C(=O)N[C@@H](CC(N)=O)C(=O)N2CCC[C@H]2C(=O)N[C@@H](CNC(=O)Nc2cccc(Cl)c2Cl)C(=O)N[C@@H](CC(C)C)C(=O)N2C[C@H](O)C[C@H]2C(=O)N[C@@H](Cc2c[nH]c3ccccc23)C(=O)N[C@@H](CCNC(=O)Nc2cccc(Cl)c2Cl)C(=O)N[C@@H](Cc2cn(CC(=O)O)c3ccccc23)C(=O)N1C [Example 1084] ({CH2CO}-Y[NMeA]NP[Dap]([CO-X77])L[Hyp]W[Dab]([CO-X77])[Trp(1-CH2COOH)][NMeNle][NMeNle]LCG-NH2; thioether N-14) |  | 2.6 |
| CCCC[C@H]1C(=O)N(C)[C@@H](CCCC)C(=O)N[C@@H](CC(C)C)C(=O)N[C@H](C(=O)NCC(N)=O)CSCC(=O)N[C@@H](Cc2ccc(O)cc2)C(=O)N(C)[C@@H](C)C(=O)N[C@@H](CC(N)=O)C(=O)N2CCC[C@H]2C(=O)N[C@@H](CNC(=O)Nc2cccc(Cl)c2Cl)C(=O)N[C@@H](CC(C)C)C(=O)N2C[C@H](O)C[C@H]2C(=O)N[C@@H](Cc2c[nH]c3ccccc23)C(=O)N[C@@H](CCN)C(=O)N[C@@H](Cc2cn(CC(=O)O)c3ccccc23)C(=O)N1C [Example 1071] ({CH2CO}-Y[NMeA]NP[Dap]([CO-X77])L[Hyp]W[Dab][Trp(1-CH2COOH)][NMeNle][NMeNle]LCG-NH2; thioether N-14) |  | 2.3 |
| CCCC[C@H]1C(=O)N(C)[C@@H](CCCC)C(=O)N[C@@H](CC(C)C)C(=O)N[C@H](C(=O)NCC(N)=O)CSCC(=O)N[C@@H](Cc2ccc(O)cc2)C(=O)N(C)[C@@H](C)C(=O)N[C@@H](CC(N)=O)C(=O)N2CCC[C@H]2C(=O)N[C@@H](CNC(=S)Nc2ccc(-n3cnc(C)n3)c(OC)c2)C(=O)N[C@@H](CC(C)C)C(=O)N2C[C@H](O)C[C@H]2C(=O)N[C@@H](Cc2c[nH]c3ccccc23)C(=O)N[C@@H](CCNC(=S)Nc2ccc(-n3cnc(C)n3)c(OC)c2)C(=O)N[C@@H](Cc2cn(CC(=O)O)c3ccccc23)C(=O)N1C [Example 1092] ({CH2CO}-Y[NMeA]NP[Dap](X24)L[Hyp]W[Dab](X24)[Trp(1-CH2COOH)][NMeNle][NMeNle]LCG-NH2; thioether N-14) | 3.4 |  |

Now from value to molecule, other results behind:

| IC50 [1] [nM] | Compound | IC50 [nM] |
| --- | --- | --- |
| 26 | CCCC[C@H]1C(=O)N(C)[C@@H](CCCC)C(=O)N[C@@H](CC(C)C)C(=O)N[C@H](C(=O)NCC(N)=O)CSCC(=O)N[C@@H](Cc2ccc(O)cc2)C(=O)N(C)[C@@H](C)C(=O)N[C@@H](CC(N)=O)C(=O)N2CCC[C@H]2C(=O)N[C@@H](CNC(=O)Nc2ccc(C(F)(F)F)cc2Cl)C(=O)N[C@@H](CC(C)C)C(=O)N2C[C@H](O)C[C@H]2C(=O)N[C@@H](Cc2c[nH]c3ccccc23)C(=O)N[C@@H](CCN)C(=O)N[C@@H](Cc2cn(CC(=O)O)c3ccccc23)C(=O)N1C [Example 1105] ({CH2CO}-Y[NMeA]NP[Dap]([CO-X30])L[Hyp]W[Dab][Trp(1-CH2COOH)][NMeNle][NMeNle]LCG-NH2; thioether N-14) |  |
| 3.9 | CCCC[C@H]1C(=O)N(C)[C@@H](CCCC)C(=O)N[C@@H](CC(C)C)C(=O)N[C@H](C(=O)NCC(N)=O)CSCC(=O)N[C@@H](Cc2ccc(O)cc2)C(=O)N(C)[C@@H](C)C(=O)N[C@@H](CC(N)=O)C(=O)N2CCC[C@H]2C(=O)N[C@@H](CNC(=S)Nc2cccc3c(C)n[nH]c23)C(=O)N[C@@H](CC(C)C)C(=O)N2C[C@H](O)C[C@H]2C(=O)N[C@@H](Cc2c[nH]c3ccccc23)C(=O)N[C@@H](CCNC(=S)Nc2cccc3c(C)n[nH]c23)C(=O)N[C@@H](Cc2cn(CC(=O)O)c3ccccc23)C(=O)N1C [Example 3052] ({CH2CO}-Y[NMeA]NP[Dap](X35)L[Hyp]W[Dab](X35)[Trp(1-CH2COOH)][NMeNle][NMeNle]LCG-NH2; thioether N-14) |  |
| 4.5 | CCCC[C@H]1C(=O)N(C)[C@@H](CCCC)C(=O)N[C@@H](CC(C)C)C(=O)N[C@H](C(=O)NCC(N)=O)CSCC(=O)N[C@@H](Cc2ccc(O)cc2)C(=O)N(C)[C@@H](C)C(=O)N[C@@H](CC(N)=O)C(=O)N2CCC[C@H]2C(=O)N[C@@H](CNC(=S)Nc2cccc3c(C#N)c[nH]c23)C(=O)N[C@@H](CC(C)C)C(=O)N2C[C@H](O)C[C@H]2C(=O)N[C@@H](Cc2c[nH]c3ccccc23)C(=O)N[C@@H](CCNC(=S)Nc2cccc3c(C#N)c[nH]c23)C(=O)N[C@@H](Cc2cn(CC(=O)O)c3ccccc23)C(=O)N1C [Example 3051] ({CH2CO}-Y[NMeA]NP[Dap](X38)L[Hyp]W[Dab](X38)[Trp(1-CH2COOH)][NMeNle][NMeNle]LCG-NH2; thioether N-14) |  |
| 8.5 | CCCCOc1ccc(NC(=O)NCC[C@@H]2NC(=O)[C@H](Cc3c[nH]c4ccccc34)NC(=O)[C@@H]3C[C@@H](O)CN3C(=O)[C@H](CC(C)C)NC(=O)[C@H](CNC(=O)Nc3ccc(OCCCC)cc3)NC(=O)[C@@H]3CCCN3C(=O)[C@H](CC(N)=O)NC(=O)[C@H](C)N(C)C(=O)[C@H](Cc3ccc(O)cc3)NC(=O)CSC[C@@H](C(=O)NCC(N)=O)NC(=O)[C@H](CC(C)C)NC(=O)[C@H](CCCC)N(C)C(=O)[C@H](CCCC)N(C)C(=O)[C@H](Cc3cn(CC(=O)O)c4ccccc34)NC2=O)cc1 [Example 1120] ({CH2CO}-Y[NMeA]NP[Dap]([CO-X39])L[Hyp]W[Dab]([CO-X39])[Trp(1-CH2COOH)][NMeNle][NMeNle]LCG-NH2; thioether N-14) |  |
| 3.3 | CCCC[C@H]1C(=O)N(C)[C@@H](CCCC)C(=O)N[C@@H](CC(C)C)C(=O)N[C@H](C(=O)NCC(N)=O)CSCC(=O)N[C@@H](Cc2ccc(O)cc2)C(=O)N(C)[C@@H](C)C(=O)N[C@@H](CC(N)=O)C(=O)N2CCC[C@H]2C(=O)N[C@@H](CNC(=S)Nc2ccc(N3CCOCC3)nc2)C(=O)N[C@@H](CC(C)C)C(=O)N2C[C@H](O)C[C@H]2C(=O)N[C@@H](Cc2c[nH]c3ccccc23)C(=O)N[C@@H](CCNC(=S)Nc2ccc(N3CCOCC3)nc2)C(=O)N[C@@H](Cc2cn(CC(=O)O)c3ccccc23)C(=O)N1C [Example 1093] ({CH2CO}-Y[NMeA]NP[Dap](X94)L[Hyp]W[Dab](X94)[Trp(1-CH2COOH)][NMeNle][NMeNle]LCG-NH2; thioether N-14) |  |
